Data on 21 compounds can be found in US7605165B2, “Phenylalanine derivatives” (Ajinomoto Co., Inc., priority 2002, dated 2009).

In one assay the target is T1, integrin α4β1 (Homo sapiens, UniProt P05556+P13612).
T1 construct: cell strain Jurkat (ATCC TIB-152) of human T cells, known to express integrin α4β1; endogenous in cells; host or cells: Jurkat (ATCC TIB-152), human T cells
The assay is described as follows: Assessment of VCAM-1/α4β1 binding antagonist activity (Jurkat cells binding to VCAM-1). It is filed as cell-based. Particulars: Jurkat human T cells binding to recombinant human VCAM-1; read-out: integrin VCAM/α4 binding antagonistic activity (IC50) α4β1. As for the experimental part:
The capacity of a test substance antagonistic to the binding of cell strain Jurkat (ATCC TIB-152) of human T cells, known to express integrin α4β1, to VCAM-1 was determined.
(§1) 100 μl/well of a solution (500 ng/ml) of recombinant human VCAM-1 (R & D systems) solution diluted with buffer A (0.1 M NaHCO3, pH 9.6) was added to a micro titer plate having 96 wells (Nunc Maxisorp). After the incubation at 4° C. overnight, unbound VCAM-1 was removed by washing once with PBS. After completion of the washing, a buffer (buffer B) obtained by diluting Block Ace (Dainippon Pharmaceutical Co., Ltd.) with PBS to 1/4 concentration was added in an amount of 150 μl/well. After the incubation at room temperature for 1 hour, buffer B was removed and the plate was washed with PBS once.
Jurkat cells were washed with Dulbecco modified Eagle medium (SIGMA, hereinafter referred to as “DMEM”) twice and then incubated in DMEM containing 10 μg/ml of Calcein-AM (Wako Pure Chemical Industries, Ltd.) at 37° C. in dark place for 30 minutes to label with fluorescence. The cells were again suspended in a binding buffer (20 mM HEPES, DMEM containing 0.1% BSA).
(§2) 50 μl of a test substance of various concentrations obtained by the dilution with the binding buffer was added to the plate. Immediately thereafter, 50 μl (final volume: 100 μl/well) of the fluorescent Jurkat cells (4×10^6 cells/ml) were added thereto, and they were incubated in dark place at room temperature for 30 minutes. After the shaking on a plate shaker (IKA MTS-4) at 800 rpm for 30 seconds, the solution was immediately removed to remove the unbound cells. The fluorescence quantity of the bound cells remaining in the wells was determined with a fluorescent plate reader (Wallac 1420 ARVO multi-label counter) (filter excitation wave length: 485 nm, emission wave length: 535 nm). The fluorescent strength thus obtained is proportional to the number of Jurkat cells bound to VCAM-1 and remaining on the plate. The binding rate of each test material in various concentrations was determined while the fluorescent strength of the test material-free well was determined to be 100%.

The next assay has as its target T2, integrin α4β7 (Homo sapiens, UniProt P13612+P26010).
T2 construct: lymphoma cell strain RPMI-8866 of human B cells, known to express integrin α4β7; endogenous in cells; host or cells: RPMI-8866, human B-cell lymphoma line
T2 sequence (P13612 34-1032): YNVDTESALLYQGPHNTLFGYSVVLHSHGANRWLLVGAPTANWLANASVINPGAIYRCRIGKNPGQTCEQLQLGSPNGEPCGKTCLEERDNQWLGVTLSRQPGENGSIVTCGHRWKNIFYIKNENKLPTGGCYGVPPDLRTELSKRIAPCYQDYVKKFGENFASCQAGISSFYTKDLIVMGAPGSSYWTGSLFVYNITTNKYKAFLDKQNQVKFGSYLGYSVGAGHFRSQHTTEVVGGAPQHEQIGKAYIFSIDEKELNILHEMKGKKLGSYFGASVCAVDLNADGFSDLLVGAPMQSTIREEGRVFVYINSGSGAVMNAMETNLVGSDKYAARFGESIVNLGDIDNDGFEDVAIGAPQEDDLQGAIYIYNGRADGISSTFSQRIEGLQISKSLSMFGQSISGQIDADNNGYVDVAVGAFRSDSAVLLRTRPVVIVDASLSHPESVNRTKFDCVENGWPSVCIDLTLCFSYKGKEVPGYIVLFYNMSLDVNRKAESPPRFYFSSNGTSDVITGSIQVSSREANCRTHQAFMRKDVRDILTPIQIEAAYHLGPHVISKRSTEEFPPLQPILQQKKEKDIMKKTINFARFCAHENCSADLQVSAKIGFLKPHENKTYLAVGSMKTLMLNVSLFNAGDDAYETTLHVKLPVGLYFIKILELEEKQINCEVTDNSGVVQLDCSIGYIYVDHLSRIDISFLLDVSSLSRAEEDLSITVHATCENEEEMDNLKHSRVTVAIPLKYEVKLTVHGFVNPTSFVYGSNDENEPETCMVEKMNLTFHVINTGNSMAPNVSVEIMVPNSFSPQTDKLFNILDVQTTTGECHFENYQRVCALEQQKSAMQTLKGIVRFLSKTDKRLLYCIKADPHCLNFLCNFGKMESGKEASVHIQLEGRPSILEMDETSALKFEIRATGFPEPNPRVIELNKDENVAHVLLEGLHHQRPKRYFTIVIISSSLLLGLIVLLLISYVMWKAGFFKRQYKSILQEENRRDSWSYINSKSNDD
T2 sequence (P26010 20-798): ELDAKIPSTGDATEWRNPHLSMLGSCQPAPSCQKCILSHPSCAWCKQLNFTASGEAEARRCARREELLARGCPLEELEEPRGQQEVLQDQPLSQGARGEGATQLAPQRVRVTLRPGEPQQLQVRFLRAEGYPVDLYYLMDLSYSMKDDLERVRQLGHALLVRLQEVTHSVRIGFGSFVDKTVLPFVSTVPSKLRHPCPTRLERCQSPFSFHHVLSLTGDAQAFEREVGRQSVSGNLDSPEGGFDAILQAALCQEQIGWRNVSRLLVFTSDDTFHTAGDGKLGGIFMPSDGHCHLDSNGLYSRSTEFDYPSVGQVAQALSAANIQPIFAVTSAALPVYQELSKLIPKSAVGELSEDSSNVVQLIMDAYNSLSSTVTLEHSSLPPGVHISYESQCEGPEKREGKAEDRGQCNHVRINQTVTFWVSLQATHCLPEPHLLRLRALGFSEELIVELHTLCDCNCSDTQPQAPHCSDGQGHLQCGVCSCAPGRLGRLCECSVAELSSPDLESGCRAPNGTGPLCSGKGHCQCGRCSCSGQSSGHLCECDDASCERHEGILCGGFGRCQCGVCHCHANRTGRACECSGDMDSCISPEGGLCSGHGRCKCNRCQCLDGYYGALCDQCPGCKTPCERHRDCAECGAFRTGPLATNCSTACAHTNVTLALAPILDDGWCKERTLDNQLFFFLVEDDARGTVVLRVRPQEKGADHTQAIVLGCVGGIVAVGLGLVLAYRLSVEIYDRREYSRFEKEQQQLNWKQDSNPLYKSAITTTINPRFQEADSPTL
The assay is described as follows: Assessment of VCAM-1/α4β7 binding antagonistic activity (RPMI-8866 cells binding to VCAM-1). It is filed as cell-based. Particulars: RPMI-8866 human B lymphoma cells binding to recombinant human VCAM-1, binding buffer with 4 mM MnCl2; read-out: integrin VCAM/α4 binding antagonistic activity (IC50) α4β7. As to the method:
The capacity of a test substance antagonistic to the binding of lymphoma cell strain RPMI-8866 of human B cells, known to express integrin α4β7, to VCAM-1 was determined.
as §1
RPMI-8866 cells were washed with DMEM twice and incubated in Dulbecco modified Eagle medium containing 10 μg/ml of Calcein-AM (Wako Pure Chemical Industries, Ltd.) (SIGMA, hereinafter referred to as “DMEM”) in dark place at 37° C. for 30 minutes to label with fluorescence. The cells were again suspended in a binding buffer (20 mM HEPES, DMEM containing 0.1% BSA) containing 4 mM of MnCl2.
as §2, with “RPMI-8866” for “Jurkat”

T1 sequence (P05556 21-798, one chain of several): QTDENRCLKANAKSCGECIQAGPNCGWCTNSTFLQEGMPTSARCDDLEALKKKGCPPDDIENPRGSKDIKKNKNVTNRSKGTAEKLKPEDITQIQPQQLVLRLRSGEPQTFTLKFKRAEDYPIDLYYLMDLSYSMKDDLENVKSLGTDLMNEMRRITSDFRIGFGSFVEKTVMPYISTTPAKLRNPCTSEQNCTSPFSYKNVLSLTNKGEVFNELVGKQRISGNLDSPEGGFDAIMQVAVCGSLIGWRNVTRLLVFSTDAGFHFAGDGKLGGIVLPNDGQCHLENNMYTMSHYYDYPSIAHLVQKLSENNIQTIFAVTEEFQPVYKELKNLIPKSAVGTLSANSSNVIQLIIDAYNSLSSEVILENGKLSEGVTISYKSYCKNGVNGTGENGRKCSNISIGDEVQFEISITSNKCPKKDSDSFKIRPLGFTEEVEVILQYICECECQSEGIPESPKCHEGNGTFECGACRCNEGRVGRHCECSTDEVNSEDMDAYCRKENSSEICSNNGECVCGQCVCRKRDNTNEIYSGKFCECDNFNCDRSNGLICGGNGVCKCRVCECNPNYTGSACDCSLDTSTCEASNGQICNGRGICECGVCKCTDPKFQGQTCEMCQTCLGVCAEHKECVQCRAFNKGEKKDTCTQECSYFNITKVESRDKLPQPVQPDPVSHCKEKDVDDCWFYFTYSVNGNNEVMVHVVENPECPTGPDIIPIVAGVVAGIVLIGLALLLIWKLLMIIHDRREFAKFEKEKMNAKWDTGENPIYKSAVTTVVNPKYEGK

On to `O=C(N[C@@H](Cc1ccc(-n2c(=O)c3ccccc3n(Cc3c(F)cccc3F)c2=O)cc1)C(=O)O)c1c(Cl)cccc1Cl` [Example 4], for which the IC50 on integrin α4β1 worked out at 26 nM; at integrin α4β7 it was 2.8 nM.

`N#CCn1c(=O)n(-c2ccc(C[C@H](NC(=O)c3c(Cl)cccc3Cl)C(=O)O)cc2)c(=O)c2ccccc21` [Example 6]: the results for the IC50 on integrin α4β1 and at integrin α4β7 were 80 nM and 3.3 nM, respectively.

Take `COc1ccc2nnn(-c3ccc(C[C@H](NC(=O)c4c(Cl)cccc4Cl)C(=O)O)cc3)c(=O)c2c1` [Reference Example 84]: the IC50 stood at 158 nM at integrin α4β1 and 20 nM at integrin α4β7.

Take `CN(C)c1ccc2c(c1)c(=O)n(-c1ccc(C[C@H](NC(=O)c3c(Cl)cccc3Cl)C(=O)O)cc1)c(=O)n2C` [Reference Example 108]: the IC50 on integrin α4β1 is 57 nM; on integrin α4β7 it was 3.3 nM.

For `Cn1c(=O)n(-c2ccc(C[C@H](NC(=O)c3c(Cl)cccc3Cl)C(=O)O)cc2)c(=O)c2cc([N+](C)(C)C)ccc21` [Reference Example 112], the values for the IC50 at integrin α4β1 and on integrin α4β7 were 37 nM and 1.1 nM, respectively.

`O=C(N[C@@H](Cc1ccc(-n2c(=O)c3ccccc3n(Cc3c(Cl)cccc3Cl)c2=O)cc1)C(=O)O)c1c(Cl)cccc1Cl` [Reference Example 114]: the IC50 on integrin α4β1 amounted to 190 nM; at integrin α4β7, 27 nM.

With `Cc1cccc(Cl)c1C(=O)N[C@@H](Cc1ccc(-n2c(=O)c3ccccc3n(C)c2=O)cc1)C(=O)O` [Reference Example 162], the figures for the IC50 on integrin α4β1 and on integrin α4β7 were 34 nM and 0.2 nM, respectively.

For the compound `Cn1c(=O)n(-c2ccc(C[C@H](NC(=O)c3c(Cl)cccc3Cl)C(=O)NO)cc2)c(=O)c2ccccc21` [Reference Example 211], the IC50 on integrin α4β1 came to 250 nM; at integrin α4β7 it was 20 nM.

Take `CCC(C)n1c(=O)n(-c2ccc(C[C@H](NC(=O)c3c(Cl)cccc3Cl)C(=O)O)cc2)c(=O)c2cc([N+](=O)[O-])ccc21` (stereo partly drawn) [compound 58]: the IC50 turned out to be 1070 nM on integrin α4β1 and 31.6 nM at integrin α4β7.

`O=C(N[C@@H](Cc1ccc(-n2c(=O)[nH]c3c(Cl)ccc(Cl)c3c2=O)cc1)C(=O)O)c1c(Cl)cccc1Cl` [compound 76]: the IC50 on integrin α4β1 was 192 nM; on integrin α4β7, 13 nM.

For the compound `O=C(N[C@@H](Cc1ccc(-n2c(=O)[nH]c3cc(F)ccc3c2=O)cc1)C(=O)O)c1c(Cl)cccc1Cl` [compound 78], the values for the IC50 at integrin α4β1 and on integrin α4β7 were 180 nM and 9.6 nM, respectively.

Consider `O=C(N[C@@H](Cc1ccc(-n2c(=O)[nH]c3ncccc3c2=O)cc1)C(=O)O)c1c(Cl)cccc1Cl` [compound 79], for which the values for the IC50 on integrin α4β1 and at integrin α4β7 were 440 nM and 18 nM, respectively.

In the case of `O=C(N[C@@H](Cc1ccc(-n2nnc3ccc(F)cc3c2=O)cc1)C(=O)O)c1c(Cl)cccc1Cl` [compound 85], the IC50 on integrin α4β1 was determined as 230 nM; on integrin α4β7, 25 nM.

With `Cc1cccc2nnn(-c3ccc(C[C@H](NC(=O)c4c(Cl)cccc4Cl)C(=O)O)cc3)c(=O)c12` [compound 89], the IC50 on integrin α4β1 amounted to 41 nM; on integrin α4β7 it was 2.7 nM.

For `CCOc1nc2ccc(F)cc2c(=O)n1-c1ccc(C[C@H](NC(=O)c2c(Cl)cccc2Cl)C(=O)O)cc1` [compound 92], the IC50 amounted to 1340 nM at integrin α4β1 and 5.7 nM at integrin α4β7.

On to `CCOc1nc2cccc(C)c2c(=O)n1-c1ccc(C[C@H](NC(=O)c2c(Cl)cccc2Cl)C(=O)O)cc1` [compound 94], for which the IC50 came to 1150 nM at integrin α4β1 and 6 nM on integrin α4β7.

`COc1ccc2c(c1)N(C)C(=O)N(c1ccc(C[C@H](NC(=O)c3c(Cl)cccc3Cl)C(=O)O)cc1)S2(=O)=O` [compound 99]: the IC50 was 12 nM at integrin α4β1 and 2 nM at integrin α4β7.

Take `CN1C(=O)N(c2ccc(C[C@H](NC(=O)c3c(Cl)cccc3Cl)C(=O)O)cc2)S(=O)(=O)c2ccc(C(F)(F)F)cc21` [compound 100]: the IC50 on integrin α4β1 came out at 11 nM; at integrin α4β7, 2.4 nM.

With `COCC(=O)Nc1ccc2c(c1)c(=O)n(-c1ccc(C[C@H](NC(=O)c3c(Cl)cccc3Cl)C(=O)O)cc1)c(=O)n2C` [compound 105], the IC50 on integrin α4β1 stood at 14 nM; at integrin α4β7, 0.8 nM.

As to `Cn1c(=O)n(-c2ccc(C[C@H](NC(=O)c3c(Cl)cccc3Cl)C(=O)O)cc2)c(=O)c2cc(NC(=O)C(C)(C)C)ccc21` [compound 106], the IC50 at integrin α4β1 was 44 nM; on integrin α4β7 it was 2.8 nM.

Consider `CCN(C)c1ccc2c(c1)c(=O)n(-c1ccc(C[C@H](NC(=O)c3c(Cl)cccc3Cl)C(=O)O)cc1)c(=O)n2C` [compound 109], for which the IC50 on integrin α4β1 amounted to 56 nM; at integrin α4β7 it was 4.3 nM.
